Legend:
pyrophosphatases = details: cited from earlier work
bone = experiment: Bone scintigraphy, pyrophosphate compared to polyphosphate; assay type: in vivo; details: as compared to polyphosphates, in words
Description: The animal was anesthetized with ethylcarbamate after injection and immediately before scintigraphy was carried out. Scintigraphy was carried out after 5 minutes, 1 hour, 2 hours and 4 hours following injection. Two recording methods were applied:
a. conventional scanning,
b. scanning, followed by information treatment for calculating surface activities.

SMILES: O=P(O)(O)OP(=O)(O)O [pyrophosphate]
- hydrolysis by pyrophosphatases (pyrophosphatases): rapid hydrolysis
- time-period before bone scintigraphy (required by elimination from organs) (bone): shorter than in the case of polyphosphates

— patent US3931396A, “Method of preparation of a composition having a base of 99^m technetium for diagnosis by scintigraphy” (priority 1974, dated 1976)
